# Key:
# [1] = target: T1, Pancreatic triacylglycerol lipase (Sus scrofa, UniProt P00591); test: Inhibition of porcine pancreatic lipase using p-Nitrophenyl butyrate substrate incubated for 15 mins by spectrophotometer analysis
# T1 sequence (P00591 whole entry): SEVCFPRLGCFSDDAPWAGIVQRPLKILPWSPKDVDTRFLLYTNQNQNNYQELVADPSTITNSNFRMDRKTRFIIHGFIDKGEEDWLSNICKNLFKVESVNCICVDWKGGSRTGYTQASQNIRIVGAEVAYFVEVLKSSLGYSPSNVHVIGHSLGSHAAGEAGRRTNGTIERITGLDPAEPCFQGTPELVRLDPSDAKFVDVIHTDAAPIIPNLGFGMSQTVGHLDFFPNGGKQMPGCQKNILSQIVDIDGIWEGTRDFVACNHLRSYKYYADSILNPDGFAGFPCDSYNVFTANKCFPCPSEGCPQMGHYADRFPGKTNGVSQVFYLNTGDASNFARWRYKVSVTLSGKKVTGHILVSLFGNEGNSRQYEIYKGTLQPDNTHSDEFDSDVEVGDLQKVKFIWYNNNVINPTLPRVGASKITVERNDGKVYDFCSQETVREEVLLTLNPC
# RAW264.7 = test: Anti-inflammatory activity in mouse RAW264.7 cells assessed as inhibition of NO production; format: functional, cell-based
# [2] = Inhibition of Saccharomyces cerevisiae alpha-glucosidase using p-nitrophenyl-alpha-D -glucopyranoside as substrate pre-incubated for 10 mins followed by substrate addition measured after 15 mins by absorbance based analysis
# Staphylococcus aureus = test: Antibacterial activity against Staphylococcus aureus assessed as bacterial growth inhibition; format: functional, organism-based
# [3] = target: T2, Tyrosine-protein phosphatase non-receptor type 1 (Homo sapiens, UniProt P18031); test: Inhibition of PTP1B (unknown origin) using pNPP as substrate by spectrophotometer analysis
# T2 sequence (P18031 whole entry): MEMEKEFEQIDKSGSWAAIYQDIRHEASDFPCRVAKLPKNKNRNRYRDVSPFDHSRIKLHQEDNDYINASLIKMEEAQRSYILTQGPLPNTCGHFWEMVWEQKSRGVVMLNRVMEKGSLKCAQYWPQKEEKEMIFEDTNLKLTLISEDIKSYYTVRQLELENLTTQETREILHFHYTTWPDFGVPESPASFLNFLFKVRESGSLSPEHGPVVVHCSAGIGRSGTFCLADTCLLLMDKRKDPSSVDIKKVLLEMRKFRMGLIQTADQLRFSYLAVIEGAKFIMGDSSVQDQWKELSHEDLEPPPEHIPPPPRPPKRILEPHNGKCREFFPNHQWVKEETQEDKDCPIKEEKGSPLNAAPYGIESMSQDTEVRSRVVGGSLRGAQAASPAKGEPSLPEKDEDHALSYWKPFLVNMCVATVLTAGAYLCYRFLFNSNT
# [4] = target: T3, Prostaglandin G/H synthase 2 (Homo sapiens, UniProt P35354); test: Inhibition of COX-2 (unknown origin) by fluorescent inhibitor screening assay
# T3 sequence (P35354 whole entry): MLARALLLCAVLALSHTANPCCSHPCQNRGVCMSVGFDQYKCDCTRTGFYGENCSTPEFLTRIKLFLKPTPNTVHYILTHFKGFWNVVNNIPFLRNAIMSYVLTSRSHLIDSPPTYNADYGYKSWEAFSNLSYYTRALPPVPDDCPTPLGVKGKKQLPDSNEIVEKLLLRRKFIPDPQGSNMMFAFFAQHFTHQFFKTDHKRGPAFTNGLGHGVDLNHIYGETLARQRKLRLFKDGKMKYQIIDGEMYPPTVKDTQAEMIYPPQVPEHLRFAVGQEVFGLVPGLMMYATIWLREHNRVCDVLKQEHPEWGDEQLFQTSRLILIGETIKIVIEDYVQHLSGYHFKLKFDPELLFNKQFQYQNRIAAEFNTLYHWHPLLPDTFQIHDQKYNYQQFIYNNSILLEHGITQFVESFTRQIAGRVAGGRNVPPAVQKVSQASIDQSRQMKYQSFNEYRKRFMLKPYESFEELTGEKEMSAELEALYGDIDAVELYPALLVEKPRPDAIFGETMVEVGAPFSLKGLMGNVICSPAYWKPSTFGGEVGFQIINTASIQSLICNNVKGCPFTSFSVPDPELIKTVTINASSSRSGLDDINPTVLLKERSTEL
# [5] = target: T3, Prostaglandin G/H synthase 2; test: Inhibition of human recombinant COX-2 pretreated with compound for 10 mins followed by substrate addition for 10 mins by fluorescent inhibitor screening assay
# [6] = target: Epithelial discoidin domain-containing receptor 1 (Homo sapiens, UniProt Q08345); test: Inhibition of DDR1 (unknown origin) by lanthascreen eu kinase activity assay
# K562 = test: Cytotoxicity against human K562 cells assessed as cell growth inhibition by CCK-8 method; format: functional, cell-based
# [7] = target: T3, Prostaglandin G/H synthase 2; test: Inhibition of COX-2 (unknown origin)
# KB = test: Cytotoxicity against human KB cells assessed as cell growth inhibition; format: functional, cell-based
# NCI-H187 = test: Cytotoxicity against human NCI-H187 cells assessed as cell growth inhibition; format: functional, cell-based
# Acetylcholinesterase [8] = target: T4, Acetylcholinesterase (Homo sapiens, UniProt P22303); test: Inhibition of AChE (unknown origin)
# [9] = target: T5, Tyrosine-protein kinase JAK3 (Homo sapiens, UniProt P52333); test: Inhibition of JAK3 (unknown origin) by FRET-based Z'-Lyte assay
# T5 sequence (P52333 whole entry): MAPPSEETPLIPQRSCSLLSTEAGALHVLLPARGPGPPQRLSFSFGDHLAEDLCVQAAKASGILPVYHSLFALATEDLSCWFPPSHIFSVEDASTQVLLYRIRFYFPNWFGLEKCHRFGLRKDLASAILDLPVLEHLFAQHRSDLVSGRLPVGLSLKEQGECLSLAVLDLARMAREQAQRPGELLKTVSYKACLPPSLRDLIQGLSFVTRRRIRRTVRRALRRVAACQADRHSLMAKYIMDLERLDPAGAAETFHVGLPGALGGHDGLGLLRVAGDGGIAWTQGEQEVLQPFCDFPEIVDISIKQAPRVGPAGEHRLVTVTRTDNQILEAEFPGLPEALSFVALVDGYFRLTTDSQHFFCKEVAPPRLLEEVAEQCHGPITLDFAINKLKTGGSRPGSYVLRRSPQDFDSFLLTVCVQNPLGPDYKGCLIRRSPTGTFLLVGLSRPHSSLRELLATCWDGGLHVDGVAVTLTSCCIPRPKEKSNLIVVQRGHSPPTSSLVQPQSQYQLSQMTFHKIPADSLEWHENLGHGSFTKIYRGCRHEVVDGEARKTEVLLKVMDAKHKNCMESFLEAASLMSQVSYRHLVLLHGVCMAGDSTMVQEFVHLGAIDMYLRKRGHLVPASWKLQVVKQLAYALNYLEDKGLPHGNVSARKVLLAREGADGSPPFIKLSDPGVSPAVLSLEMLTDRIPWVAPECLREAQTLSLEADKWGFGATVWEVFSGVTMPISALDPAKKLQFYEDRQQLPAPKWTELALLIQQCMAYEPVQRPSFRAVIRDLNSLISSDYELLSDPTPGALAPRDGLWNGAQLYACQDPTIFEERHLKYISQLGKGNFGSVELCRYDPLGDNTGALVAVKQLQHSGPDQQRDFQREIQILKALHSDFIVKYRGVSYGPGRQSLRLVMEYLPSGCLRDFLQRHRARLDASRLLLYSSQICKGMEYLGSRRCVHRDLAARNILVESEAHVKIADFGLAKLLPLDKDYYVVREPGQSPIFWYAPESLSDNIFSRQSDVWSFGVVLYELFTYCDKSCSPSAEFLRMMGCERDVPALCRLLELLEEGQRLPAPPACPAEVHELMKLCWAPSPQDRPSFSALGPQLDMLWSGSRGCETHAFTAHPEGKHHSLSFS
# Acetylcholinesterase [10] = target: T4, Acetylcholinesterase; test: Inhibition of human erythrocyte AChE using acetylthiocholine iodide as substrate incubated for 20 mins by DTNB reagent based spectrophotometric method
# T4 sequence (P22303 whole entry): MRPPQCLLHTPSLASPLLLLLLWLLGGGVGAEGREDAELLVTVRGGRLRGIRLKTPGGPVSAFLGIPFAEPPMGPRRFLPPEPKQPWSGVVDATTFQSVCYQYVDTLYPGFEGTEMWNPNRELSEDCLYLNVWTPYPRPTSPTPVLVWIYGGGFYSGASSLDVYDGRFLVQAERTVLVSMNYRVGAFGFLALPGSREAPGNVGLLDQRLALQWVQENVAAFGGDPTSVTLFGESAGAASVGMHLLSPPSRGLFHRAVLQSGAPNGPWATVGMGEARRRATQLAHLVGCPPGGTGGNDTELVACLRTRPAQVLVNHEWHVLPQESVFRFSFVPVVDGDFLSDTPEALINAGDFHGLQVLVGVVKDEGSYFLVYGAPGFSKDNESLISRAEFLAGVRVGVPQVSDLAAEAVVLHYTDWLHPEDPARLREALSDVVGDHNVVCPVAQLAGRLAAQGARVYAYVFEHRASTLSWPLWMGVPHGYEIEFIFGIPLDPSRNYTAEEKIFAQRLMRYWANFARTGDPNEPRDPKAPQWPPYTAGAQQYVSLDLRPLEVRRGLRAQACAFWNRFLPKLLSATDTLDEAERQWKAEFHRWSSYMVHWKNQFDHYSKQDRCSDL
# Chain of Epithelial discoidin domain-containing receptor 1 (Q08345 whole entry, the tested form may be a part): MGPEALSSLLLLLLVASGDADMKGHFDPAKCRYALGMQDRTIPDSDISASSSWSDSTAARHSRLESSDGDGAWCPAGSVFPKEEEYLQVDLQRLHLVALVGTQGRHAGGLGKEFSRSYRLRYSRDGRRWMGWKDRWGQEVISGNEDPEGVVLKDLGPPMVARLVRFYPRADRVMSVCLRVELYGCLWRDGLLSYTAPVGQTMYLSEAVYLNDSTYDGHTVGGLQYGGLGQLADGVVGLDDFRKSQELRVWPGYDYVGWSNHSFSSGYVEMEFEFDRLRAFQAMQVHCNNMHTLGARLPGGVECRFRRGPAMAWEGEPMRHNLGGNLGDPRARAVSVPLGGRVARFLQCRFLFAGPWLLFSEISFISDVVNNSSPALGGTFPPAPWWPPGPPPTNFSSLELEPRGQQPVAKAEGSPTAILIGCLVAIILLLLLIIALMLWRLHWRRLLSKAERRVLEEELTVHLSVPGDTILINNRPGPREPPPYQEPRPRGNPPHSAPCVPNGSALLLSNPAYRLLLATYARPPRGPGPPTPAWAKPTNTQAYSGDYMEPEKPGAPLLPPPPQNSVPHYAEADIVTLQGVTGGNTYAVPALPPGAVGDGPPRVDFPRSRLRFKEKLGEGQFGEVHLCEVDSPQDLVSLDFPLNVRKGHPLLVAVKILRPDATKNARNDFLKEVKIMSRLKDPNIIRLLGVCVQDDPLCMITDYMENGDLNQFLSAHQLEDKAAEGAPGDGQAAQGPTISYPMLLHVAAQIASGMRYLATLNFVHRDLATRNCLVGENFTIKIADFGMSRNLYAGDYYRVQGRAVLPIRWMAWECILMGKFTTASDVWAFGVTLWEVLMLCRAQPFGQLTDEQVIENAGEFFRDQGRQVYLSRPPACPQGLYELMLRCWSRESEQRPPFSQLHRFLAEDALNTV
smiles,measurement,setting,value
CC(C)=CCC/C(C)=C/CCC1=C[C@]2(OC1=O)c1cc(O)ccc1OC(=O)[C@@]2(CC/C=C(\C)CCC=C(C)C)CC(=O)c1cc(O)ccc1O (racemic),IC50,[1],27.3 µM
CC1(C)CCC[C@@]23C[C@@](CC(=O)c4cc(O)ccc4O)(CC[C@H]12)C(=O)O3,IC50,RAW264.7,6.1 µM
COC(=O)[C@H](Cc1ccccc1)N1Cc2c(cc(O)c(C/C=C(\C)CC/C=C(\C)C(=O)O)c2O)C1=O,IC50,[2],40.8 µM
C=C(C)C1CCC2(C(=O)OCC)CC13Oc1c(C/C=C(/CC/C=C(\C)CCC=C(C)C)C(=O)O)cc(O)cc1-c1c(O)ccc(c13)O2 (racemic),IC50,Staphylococcus aureus,5.43 µM
CC(=O)O[C@@H]1c2c3c(cc(O)c2C(=O)O[C@@H]1C)O[C@@]1(C)[C@@H](O)C[C@H]2C(C)(C)[C@@H](O)C=C[C@]2(C)[C@@H]1C3,IC50,[3],62.5 µM
C/C(=C\CC/C(C)=C/C/C=C(/CC(=O)c1cc(O)ccc1O)C(=O)O)CO,IC50,[4],4.84 µM
CC(C)=CCCC1=C[C@]2(OC1=O)c1cc(O)ccc1OC(=O)[C@@]2(CC/C=C(\C)CCC=C(C)C)CC(=O)c1cc(O)ccc1O (racemic),IC50,[5],1.29 µM
CC1(C)CCC[C@]23C[C@](CC(=O)c4cc(O)ccc4O)(CC[C@@H]12)C(=O)O3,IC50,RAW264.7,5.9 µM
CO[C@@H]1OC(=O)[C@]2(CC(=O)c3cc(O)ccc3O)C[C@H]3[C@H](C/C=C(\CC(=O)c4cc(O)ccc4O)C(=O)O)C(C=O)=CO[C@H]3[C@]12C,IC50,[6],6.9 µM
C=C(C)C1CCC2(C(=O)OCC)CC13Oc1cc(C/C=C(/CC/C=C(\C)CCC=C(C)C)C(=O)O)c(O)cc1-c1c(O)ccc(c13)O2 (racemic),IC50,Staphylococcus aureus,5.43 µM
same,IC50,K562,6.68 µM
O=C1C[C@]23CC[C@H](O)[C@]2(COC3=O)c2c(O)ccc(O)c21,IC50,[7],25.5 µM
C/C(=C/CC/C(C)=C/CC/C(=C/C(=O)c1cc(O)ccc1O)C(=O)O)CO,IC50,[4],3.47 µM
C[C@@H]1Cc2c3c(c(Cl)c(O)c2C(=O)O1)O[C@@]1(C)[C@@H](O)C[C@H]2C(C)(C)C(=O)C(Cl)(Cl)C[C@]2(C)[C@@H]1C3,IC50,[3],71.6 µM
COC1(c2cc(O)ccc2O)C=C(CC[C@@H]2C(C)(C)[C@@H]3CC[C@]2(C)O3)C(=O)O1 (some centres not stated),IC50,[7],9.96 µM
CC(=O)O[C@H]1C[C@@H](O)[C@@]2(C)[C@@H](CC[C@]3(C)[C@@H]2[C@@H](O)C[C@]2(C)Oc4oc(C)cc(=O)c4C[C@@H]32)C1(C)C,IC50,KB,32.7 µM
same,IC50,NCI-H187,32.7 µM
COc1ccc(-c2cc3c(c(=O)o2)C[C@]2(O)[C@@]4(C)CC[C@@H](O)C(C)(C)[C@]4(O)CC[C@@]2(C)O3)cc1,IC50,Acetylcholinesterase [8],0.64 µM
C/C(=C\Cc1c(O)cc2c(c1O)CN(CCCC[C@@H](C(=O)O)N1Cc3c(cc(O)c(C/C=C(\C)CC/C=C(\C)C(=O)O)c3O)C1=O)C2=O)CC/C=C(\C)C(=O)O,IC50,[2],39.2 µM
COC(=O)[C@H](CCCCN1Cc2c(cc(O)c(C/C=C(\C)CC/C=C(\C)C(=O)O)c2O)C1=O)N1Cc2c(cc(O)c(C/C=C(\C)CC/C=C(\C)C(=O)O)c2O)C1=O,IC50,[2],36.2 µM
C/C(=C/CC/C(C)=C/CC[C@]1(C(=O)O)CC(=O)c2cc(O)ccc2O1)C(=O)O,IC50,[4],1.05 µM
C=C(C)C1CCC2(C(=O)OCC)CC13Oc1c(C/C=C(\CO)CC/C=C(\C)CCC=C(C)C)cc(O)cc1-c1c(O)ccc(c13)O2 (racemic),IC50,K562,7.68 µM
CO[C@@H]1c2c3c(cc(O)c2C(=O)O[C@@H]1C)O[C@@]1(C)[C@@H](O)C[C@H]2C(C)(C)C(=O)C=C[C@]2(C)[C@@H]1C3,IC50,[3],63.1 µM
CO[C@H]1OC(=O)[C@@]2(CC(=O)c3cc(O)ccc3O)C[C@@H]3[C@@H](CCC4=C[C@@H](c5cc(O)ccc5O)OC4=O)C(C=O)=CO[C@@H]3[C@@]12C (racemic),IC50,[9],< 10 µM
CC(C)=CCC/C(C)=C/CCC1=C[C@@]2(OC1=O)c1cc(O)ccc1OC(=O)[C@]2(CC/C=C(\C)CCC=C(C)C)CC(=O)c1cc(O)ccc1O,IC50,[1],4 µM
C/C(=C\CC/C(C)=C/CCCC1(O)Oc2ccc(O)cc2C1=O)CO (configuration not stated),IC50,[4],1.38 µM
CC(C)=CCC/C(C)=C/CCC1=C[C@]2(OC1=O)c1cc(O)ccc1OC(=O)[C@@]2(CCC=C(C)C)CC(=O)c1cc(O)ccc1O (racemic),IC50,[5],1.29 µM
CC(=O)O[C@@H]1C[C@@]2(C)Oc3cc(C)oc(=O)c3C[C@@H]2[C@@]2(C)C=CC(=O)C(C)(C)[C@H]12,IC50,Acetylcholinesterase [8],13.6 µM
CC(C)=CCC/C(C)=C/CCC1=C[C@]2(OC1=O)c1cc(O)ccc1OC(=O)[C@@]2(CC/C=C(\C)CCC=C(C)C)CC(=O)c1cc(O)ccc1O,IC50,[1],2.5 µM
CCOC1(c2cc(O)ccc2O)C=C(CC/C=C(\C)CCC=C(C)C)C(=O)O1 (configuration not stated),IC50,Acetylcholinesterase [10],7.37 µM
CO[C@H]1OC(=O)[C@@]2(CC(=O)c3cc(O)ccc3O)C[C@@H]3[C@@H](CCC4=C[C@H](c5cc(O)ccc5O)OC4=O)C(C=O)=CO[C@@H]3[C@@]12C (racemic),IC50,[9],< 10 µM
COC/C(C=O)=C\CCC1=CC(c2cc(O)ccc2O)OC1=O (configuration not stated),IC50,Acetylcholinesterase [10],8.52 µM

# Source: ChEMBL document CHEMBL5113368, “Meroterpenoids produced by fungi: Occurrence, structural diversity, biological activities, and their molecular targets” (Eur J Med Chem, 2021)
